Source: ChEMBL document CHEMBL6096642 (Eur J Med Chem, 2025)
pIC50: −log10 of the molar value. Activity calls are given as the source filed them. No cut-off for these calls is given here.

Tests used:
Rattus norvegicus [1] = species on record: Rattus norvegicus; assay: Selectivity index, ratio of IC50 for rat kidney ALR1 to IC50 for rat lens ALR2
[2] = target: T1, Tyrosine-protein phosphatase non-receptor type 1 (Homo sapiens) (UniProt P18031); assay: (§1) Inhibition of polyhis-tagged recombinant human PTP1B (1 to 303 residues) extracted from Escherichia coli BL21 (DE3) pLysS using p-nitro-phenyl phosphate as substrate at 10 uM preincubated for 15 mins followed by substrate addition and measured after 15 mins by absorbance based analysis relative to control; settings: time 30.0 min
T1 sequence (whole entry): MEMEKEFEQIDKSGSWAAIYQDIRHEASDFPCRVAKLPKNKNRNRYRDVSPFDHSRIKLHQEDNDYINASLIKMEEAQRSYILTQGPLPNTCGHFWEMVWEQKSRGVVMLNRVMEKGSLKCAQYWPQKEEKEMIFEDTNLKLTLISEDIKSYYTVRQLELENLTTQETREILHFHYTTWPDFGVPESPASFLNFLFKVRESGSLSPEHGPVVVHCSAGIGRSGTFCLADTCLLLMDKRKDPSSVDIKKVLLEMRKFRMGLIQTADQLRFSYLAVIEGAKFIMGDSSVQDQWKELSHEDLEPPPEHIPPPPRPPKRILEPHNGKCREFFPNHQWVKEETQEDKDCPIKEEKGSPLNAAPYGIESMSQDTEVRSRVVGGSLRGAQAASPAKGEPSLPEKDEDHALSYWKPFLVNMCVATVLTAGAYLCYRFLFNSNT

[3] = target: T2, Tyrosine-protein phosphatase non-receptor type 1 (Homo sapiens, UniProt P18031); assay: Inhibition of polyhis-tagged recombinant human PTP1B (1 to 303 residues) extracted from Escherichia coli BL21 (DE3) pLysS using p-nitro-phenyl phosphate as substrate assessed as substrate hydrolysis by measuring p-nitrophenolate release by absorbance based analysis
T2 sequence (P18031 whole entry): T1 sequence (whole entry)

[4] = target: T1, Tyrosine-protein phosphatase non-receptor type 1 (Homo sapiens); assay: as §1, with “50” for “10”; settings: time 30.0 min
[5] = target: Aldo-keto reductase family 1 member B1 (Rattus norvegicus, UniProt P07943); assay: Inhibition of male Wistar rat lens ALR2 using D,L-glyceraldehyde as substrate assessed as NADPH consumption by spectrophotometric analysis
[6] = target: Aldo-keto reductase family 1 member B1 (Rattus norvegicus) (UniProt P07943); assay: Inhibition of male Wistar rat lens ALR2 using D,L-glyceraldehyde as substrate assessed as NADPH consumption at 1 uM by spectrophotometric analysis relative to control
[7] = target: T3, Aldo-keto reductase family 1 member A1 (Rattus norvegicus, UniProt P51635); assay: Inhibition of male Wistar rat kidney ALR1 using D-glucuronate as substrate assessed as NADPH consumption by spectrophotometric analysis
T3 sequence (P51635 whole entry): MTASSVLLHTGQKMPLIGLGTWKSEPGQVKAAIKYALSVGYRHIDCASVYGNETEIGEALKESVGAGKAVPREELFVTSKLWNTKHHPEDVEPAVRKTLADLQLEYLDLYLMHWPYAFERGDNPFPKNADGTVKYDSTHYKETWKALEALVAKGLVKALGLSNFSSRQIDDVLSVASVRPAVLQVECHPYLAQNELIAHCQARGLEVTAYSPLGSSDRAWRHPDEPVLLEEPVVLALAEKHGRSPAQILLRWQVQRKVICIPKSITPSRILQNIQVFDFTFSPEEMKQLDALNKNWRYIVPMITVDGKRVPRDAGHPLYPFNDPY

Rattus norvegicus [8] = species on record: Rattus norvegicus; assay: Selectivity index, ratio of IC50 for male Wistar rat kidney ALR1 using D-glucuronate as substrate to IC50 for male Wistar rat lens ALR2 using D,L-glyceraldehyde as substrate
[9] = target: Aldo-keto reductase family 1 member B1 (Rattus norvegicus) (UniProt P07943); assay: Inhibition of male Wistar rat lens ALR2 using D,L-glyceraldehyde as substrate assessed as NADPH consumption at 10 uM by spectrophotometric analysis relative to control
[10] = target: T3, Aldo-keto reductase family 1 member A1; assay: Inhibition of rat kidney ALR1; assay type: tissue-based
C2C12 [11] = assay: Effect on maximal respiration rate in mouse C2C12 cells assessed as decrease in coupling efficiency at 25 uM incubated for 30 mins by Seahorse XF cell mito stress analysis; assay type: functional, cell-based
C2C12 [12] = assay: Induction of mitochondrial uncoupling activity in mouse C2C12 cells assessed as decrease in oxygen-dependent ATP production at 25 uM incubated for 30 mins by Seahorse XF cell mito stress analysis; assay type: functional, cell-based
C2C12 [13] = assay: Reduction in proton leak in mouse C2C12 cells assessed as decrease in coupling efficiency at 25 uM incubated for 24 hrs by Seahorse XF cell mito stress analysis; assay type: functional, cell-based
Mitochondrial membrane = assay: Induction of mitochondrial membrane potential loss in mouse C2C12 cells at 25 uM incubated for 0.5 to 50 hrs by TMRE probe based flow cytometric analysis; settings: time 0.5-50 hrs
C2C12 [14] = assay: Effect on couple efficiency in mouse C2C12 cells assessed as decrease in coupling efficiency at 25 uM incubated for 24 hrs by Seahorse XF cell mito stress analysis; assay type: functional, cell-based
C2C12 [15] = assay: Reduction in oxygen-dependent ATP production in mouse C2C12 cells assessed as decrease in coupling efficiency at 25 uM incubated for 24 hrs by Seahorse XF cell mito stress analysis; assay type: functional, cell-based
C2C12 [16] = assay: Effect on basal respiration rate in mouse C2C12 cells assessed as decrease in coupling efficiency at 25 uM incubated for 30 mins by Seahorse XF cell mito stress analysis; assay type: functional, cell-based
C2C12 [17] = assay: Effect on sparse capacity in mouse C2C12 cells assessed as decrease in coupling efficiency at 25 uM incubated for 24 hrs by Seahorse XF cell mito stress analysis; assay type: functional, cell-based
C2C12 [18] = assay: Reduction of mitochondrial mass in mouse C2C12 cells at 25 uM incubated for 72 hrs by Mitotracker green based flow cytometric analysis; assay type: functional, cell-based
C2C12 [19] = assay: Cytotoxicity against mouse C2C12 cells assessed as reduction in cell viability at 1 uM measured after 48 hrs by MTT assay; assay type: toxicity, cell-based; settings: c2c12, 48 h
C2C12 [20] = assay: Induction of mitochondrial uncoupling activity in mouse C2C12 cells assessed as increase in proton leak at 25 uM incubated for 30 mins by Seahorse XF cell mito stress analysis; assay type: functional, cell-based
C2C12 [21] = assay: Induction of mitochondrial uncoupling activity in mouse C2C12 cells assessed as decrease in coupling efficiency at 25 uM incubated for 30 mins by Seahorse XF cell mito stress analysis; assay type: functional, cell-based
C2C12 [22] = assay: Enhancement of […] glucose uptake in mouse C2C12 cells assessed as increase in 2-NDBG uptake at 25 to 50 uM preincubated for 30 mins followed by insulin addition and measure after 30 mins by flow cytometric analysis; assay type: functional, cell-based; settings: dose 25-50 µM, time 60.0 min
Homo sapiens = species on record: Homo sapiens; assay: Selectivity index, ratio of IC50 for polyHis-tagged recombinant human TCPTP (1 to 415 residues) extracted from Escherichia coli BL21 (DE3) pLysS using p-nitro-phenyl phosphate as substrate to IC50 for polyhis-tagged recombinant human PTP1B (1 to 303 residues) extracted from Escherichia coli BL21 (DE3) pLysS using p-nitro-phenyl phosphate as substrate
[23] = target: T4, Tyrosine-protein phosphatase non-receptor type 2 (Homo sapiens, UniProt P17706); assay: Inhibition of polyHis-tagged recombinant human TCPTP (1 to 415 residues) extracted from Escherichia coli BL21 (DE3) pLysS using p-nitro-phenyl phosphate as substrate assessed as substrate hydrolysis by measuring p-nitrophenolate release by absorbance based analysis
T4 sequence (P17706 whole entry): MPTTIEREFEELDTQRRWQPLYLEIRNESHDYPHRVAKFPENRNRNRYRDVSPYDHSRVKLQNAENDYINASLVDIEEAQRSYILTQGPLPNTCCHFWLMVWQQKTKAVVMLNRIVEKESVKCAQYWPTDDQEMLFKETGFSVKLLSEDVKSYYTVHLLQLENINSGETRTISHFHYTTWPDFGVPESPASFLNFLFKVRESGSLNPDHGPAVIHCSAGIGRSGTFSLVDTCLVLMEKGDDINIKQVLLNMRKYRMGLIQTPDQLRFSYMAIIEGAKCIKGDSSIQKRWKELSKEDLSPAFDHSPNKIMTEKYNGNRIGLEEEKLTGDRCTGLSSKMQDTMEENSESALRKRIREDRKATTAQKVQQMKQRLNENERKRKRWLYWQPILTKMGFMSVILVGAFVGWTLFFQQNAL

C2C12 [24] = assay: Induction of glucose uptake in mouse C2C12 cells assessed as increase in 2-NDBG uptake at 25 to 50 uM incubated for 30 mins by flow cytometric analysis; assay type: functional, cell-based; settings: dose 25-50 µM
C2C12 [25] = assay: Induction of mitochondrial uncoupling activity in mouse C2C12 cells assessed as decrease in sparse capacity at 25 uM incubated for 30 mins by Seahorse XF cell mito stress analysis; assay type: functional, cell-based
C2C12 [26] = assay: Reduction in basal respiration rate in mouse C2C12 cells assessed as decrease in coupling efficiency at 25 uM incubated for 24 hrs by Seahorse XF cell mito stress analysis; assay type: functional, cell-based
C2C12 [27] = assay: Reduction in maximal respiration rate in mouse C2C12 cells assessed as decrease in coupling efficiency at 25 uM incubated for 24 hrs by Seahorse XF cell mito stress analysis; assay type: functional, cell-based
C2C12 [28] = assay: Induction of Akt phosphorylation in mouse C2C12 cells at 25 uM incubated for 30 mins in presence of insulin by Western blot analysis; assay type: cell-based
C2C12 [29] = assay: Induction of glucose uptake in mouse C2C12 cells assessed as decrease in glucose concentration in cell culture medium at 25 to 50 uM incubated for 24 hrs by BGSTAR glucometric analysis; assay type: functional, cell-based; settings: dose 25-50 µM
C2C12 [30] = assay: Effect on mitochondrial mass in mouse C2C12 cells at 25 uM incubated for 72 hrs by Mitotracker green based flow cytometric analysis; assay type: functional, cell-based
[31] = target: T1, Tyrosine-protein phosphatase non-receptor type 1 (Homo sapiens); assay: Irreversible inhibition of polyhis-tagged recombinant human PTP1B (1 to 303 residues) extracted from Escherichia coli BL21 (DE3) pLysS at 200 uM incubated for 1 hrs and measured after dilution
C2C12 [32] = assay: Induction of Akt phosphorylation in mouse C2C12 cells at 25 uM incubated for 30 mins by Western blot analysis; assay type: cell-based
C2C12 [33] = assay: Effect on mitochondrial mass in mouse C2C12 cells at 25 to 50 uM incubated for 72 hrs by Mitotracker green based flow cytometric analysis; assay type: functional, cell-based; settings: dose 25-50 µM
[34] = Selectivity index, ratio of IC50 for TCPTP (unknown origin) extracted from Escherichia coli BL21 TB1 using p-nitro-phenyl phosphate as substrate to IC50 for human PTP1B extracted from Escherichia coli BL21 TB1 using p-nitro-phenyl phosphate as substrate

## Cc1ccc(CN2C(=O)C(C(C#N)C(=O)O)c3cc(F)ccc32)cc1 (stereo not given)
Rattus norvegicus [1]
  Ratio IC50: 16

## O=C(O)CN1C(=O)S/C(=C\c2cn(Cc3ccc(Br)cc3F)c3ccccc23)C1=O
[2]
  inhibition: 0%
[3]
  pIC50: < 4.30
[4]
  inhibition: 4.4%
[5]
  pIC50: 6.73
[6]
  inhibition: > 70%
[7]
  pIC50: < 4.82
Rattus norvegicus [8]
  Ratio IC50: > 80
[9]
  inhibition: > 92%

## CC(/C=C1\SC(=S)N(CC(=O)O)C1=O)=C\c1ccccc1
[10]
  pIC50: 5.67
[7]
  pIC50: 5.63

## O=C(O)CN1C(=O)S/C(=C\c2cn(Cc3ccc(Cl)cc3Cl)c3ccccc23)C1=O
C2C12 [11]
  Activity: inactive
C2C12 [12]
  Activity: Active
C2C12 [13]
  Activity: Active
Mitochondrial membrane
  Activity: Active; Compound Targets Mitochondria As An Uncoupling Agent
C2C12 [14]
  Activity: inactive
C2C12 [15]
  Activity: Active
[2]
  inhibition: 28.1%
C2C12 [16]
  Activity: inactive
C2C12 [17]
  Activity: inactive
C2C12 [18]
  Activity: Active
[3]
  pIC50: 4.67
C2C12 [19]
  Activity: Toxic
C2C12 [20]
  Activity: Active
[4]
  inhibition: 62.8%
C2C12 [21]
  Activity: Active
C2C12 [22]
  Activity: inactive
Homo sapiens
  Ratio IC50: 1.8
[5]
  pIC50: 6.54
[23]
  pIC50: 4.42
C2C12 [24]
  Activity: Active
C2C12 [25]
  Activity: Active
C2C12 [26]
  Activity: Active
C2C12 [27]
  Activity: Active
C2C12 [28]
  Activity: Not active; Compound Acted Neither As An Insulin Mimetic Nor A Sensitizing Agent
C2C12 [29]
  Activity: Active
[6]
  inhibition: > 70%
[7]
  pIC50: < 4.82
Rattus norvegicus [8]
  Ratio IC50: > 52
C2C12 [30]
  Activity: inactive
[31]
  inhibition: Active
[9]
  inhibition: > 92%
C2C12 [32]
  Activity: Not active; Compound Acted Neither As An Insulin Mimetic Nor A Sensitizing Agent

## CN(C)C(=N)NC(=N)N
C2C12 [33]
  Activity: inactive

## O=C(O)CN1C(=O)S/C(=C\c2cn(Cc3ccccc3)c3ccccc23)C1=O
[2]
  inhibition: 18.3%
[3]
  pIC50: 4.37
[4]
  inhibition: 49.6%
Homo sapiens
  Ratio IC50: 1.1
[5]
  pIC50: 7.59
[23]
  pIC50: 4.33
[6]
  inhibition: > 70%
[7]
  pIC50: 5.12
Rattus norvegicus [8]
  Ratio IC50: 290
[31]
  inhibition: Active
[9]
  inhibition: > 92%

## O=C(O)CN1C(=O)S/C(=C\c2cn(Cc3ccc(F)cc3)c3ccccc23)C1=O
[2]
  inhibition: 0%
[4]
  inhibition: 90.8%
[5]
  pIC50: 7.74
[6]
  inhibition: > 70%
[7]
  pIC50: 4.85
Rattus norvegicus [8]
  Ratio IC50: 787
[9]
  inhibition: > 92%

## O=c1c(O)c(-c2ccc(O)cc2O)oc2cc(O)cc(O)c12
[2]
  inhibition: 34.5%
[4]
  inhibition: 95.2%
[34]
  Ratio IC50: 1.3
